Measured values as given in ChEMBL document CHEMBL3045485, “Synthesis of combretastatin analogs: evaluation of in vitro anticancer activity and molecular docking studies” (Med Chem Res, 2012).
pIC50: −log10 of the molar value.

Key:
PC-3 [1] = assay: Cytotoxicity against Homo sapiens (human) PC3 cells assessed as growth inhibition at 1 x 10^-4 mole after 48 hr by SRB assay; assay type: functional
PC-3 [2] = assay: Cytotoxicity against Homo sapiens (human) PC3 cells assessed as growth inhibition at 5 x 10^-5 mole after 48 hr by SRB assay; assay type: functional
A549 [3] = assay: Cytotoxicity against Homo sapiens (human) A549 cells assessed as growth inhibition at 1 x 10^-4 mole after 48 hr by SRB assay; assay type: functional
A549 [4] = assay: Cytotoxicity against Homo sapiens (human) A549 cells assessed as growth inhibition at 5 x 10^-5 mole after 48 hr by SRB assay; assay type: functional
THP-1 [5] = assay: Cytotoxicity against Homo sapiens (human) THP1 cells assessed as growth inhibition at 1 x 10^-4 mole after 48 hr by SRB assay; assay type: functional
THP-1 [6] = assay: Cytotoxicity against Homo sapiens (human) THP1 cells assessed as growth inhibition at 5 x 10^-5 mole after 48 hr by SRB assay; assay type: functional
COLO 205 [7] = assay: Cytotoxicity against Homo sapiens (human) COLO205 cells assessed as growth inhibition at 1 x 10^-4 mole after 48 hr by SRB assay; assay type: functional
COLO 205 [8] = assay: Cytotoxicity against Homo sapiens (human) COLO205 cells assessed as growth inhibition at 5 x 10^-5 mole after 48 hr by SRB assay; assay type: functional
COLO 205 [9] = assay: Cytotoxicity against Homo sapiens (human) COLO205 cells after 48 hr by SRB assay; assay type: functional, cell-based; conditions: COLO 205, 48 h, pooled result: one value given for 7 cell lines, strains, targets or settings
IGROV-1 [10] = assay: Cytotoxicity against Homo sapiens (human) IGROV1 cells assessed as growth inhibition at 5 x 10^-5 mole after 48 hr by SRB assay; assay type: functional
IGROV-1 [11] = assay: Cytotoxicity against Homo sapiens (human) IGROV1 cells assessed as growth inhibition at 1 x 10^-4 mole after 48 hr by SRB assay; assay type: functional
MCF7 [12] = assay: Cytotoxicity against Homo sapiens (human) MCF-7 cells assessed as growth inhibition at 1 x 10^-4 mole after 48 hr by SRB assay; assay type: functional
MCF7 [13] = assay: Cytotoxicity against Homo sapiens (human) MCF-7 cells assessed as growth inhibition at 5 x 10^-5 mole after 48 hr by SRB assay; assay type: functional
SF-295 [14] = assay: Cytotoxicity against Homo sapiens (human) SF295 cells assessed as growth inhibition at 1 x 10^-4 mole after 48 hr by SRB assay; assay type: functional
SF-295 [15] = assay: Cytotoxicity against Homo sapiens (human) SF295 cells assessed as growth inhibition at 5 x 10^-5 mole after 48 hr by SRB assay; assay type: functional
THP-1 [16] = assay: Cytotoxicity against Homo sapiens (human) THP1 cells assessed as growth inhibition at 2 x 10^-5 mole after 48 hr by SRB assay; assay type: functional
COLO 205 [17] = assay: Cytotoxicity against Homo sapiens (human) COLO205 cells assessed as growth inhibition at 2 x 10^-5 mole after 48 hr by SRB assay; assay type: functional
PC-3 [18] = assay: Cytotoxicity against Homo sapiens (human) PC3 cells assessed as growth inhibition at 1 x 10^-5 mole after 48 hr by SRB assay; assay type: functional
MCF7 [19] = assay: Cytotoxicity against Homo sapiens (human) MCF-7 cells assessed as growth inhibition at 1 x 10^-5 mole after 48 hr by SRB assay; assay type: functional
SF-295 [20] = assay: Cytotoxicity against Homo sapiens (human) SF295 cells assessed as growth inhibition at 1 x 10^-6 mole after 48 hr by SRB assay; assay type: functional
MCF7 [21] = assay: Cytotoxicity against Homo sapiens (human) MCF-7 cells assessed as growth inhibition at 1 x 10^-6 mole after 48 hr by SRB assay; assay type: functional
IGROV-1 [22] = assay: Cytotoxicity against Homo sapiens (human) IGROV1 cells assessed as growth inhibition at 1 x 10^-5 mole after 48 hr by SRB assay; assay type: functional
A549 [23] = assay: Cytotoxicity against Homo sapiens (human) A549 cells assessed as growth inhibition at 1 x 10^-5 mole after 48 hr by SRB assay; assay type: functional

## COc1ccc(/C=C(\C(=O)O)c2ccccc2)c(OC)c1OC
PC-3 [1]
  growth inhibition (GI): 7%
PC-3 [2]
  growth inhibition (GI): 0%
A549 [3]
  growth inhibition (GI): 0%
A549 [4]
  growth inhibition (GI): 0%
THP-1 [5]
  growth inhibition (GI): 0%
THP-1 [6]
  growth inhibition (GI): 0%
COLO 205 [7]
  growth inhibition (GI): 0%
COLO 205 [8]
  growth inhibition (GI): 0%

## O=C(O)/C(=C\c1cccc2ccccc12)c1ccccc1
PC-3 [1]
  growth inhibition (GI): 35%
PC-3 [2]
  growth inhibition (GI): 26%
A549 [3]
  growth inhibition (GI): 0%
A549 [4]
  growth inhibition (GI): 0%
COLO 205 [9]
  pIC50: < 4.00
THP-1 [5]
  growth inhibition (GI): 22%
THP-1 [6]
  growth inhibition (GI): 0%
COLO 205 [7]
  growth inhibition (GI): 70%
COLO 205 [8]
  growth inhibition (GI): 51%

## O=C(O)/C(=C\c1cccc(O)c1O)c1ccccc1
IGROV-1 [10]
  growth inhibition (GI): 15%
IGROV-1 [11]
  growth inhibition (GI): 31%
PC-3 [1]
  growth inhibition (GI): 74%
PC-3 [2]
  growth inhibition (GI): 31%
MCF7 [12]
  growth inhibition (GI): 26%
MCF7 [13]
  growth inhibition (GI): 14%
A549 [3]
  growth inhibition (GI): 52%
A549 [4]
  growth inhibition (GI): 52%
COLO 205 [9]
  pIC50: 4.02

## O=C(O)/C(=C\c1ccccc1[N+](=O)[O-])c1ccccc1
PC-3 [1]
  growth inhibition (GI): 22%
PC-3 [2]
  growth inhibition (GI): 10%
A549 [3]
  growth inhibition (GI): 25%
A549 [4]
  growth inhibition (GI): 15%
THP-1 [5]
  growth inhibition (GI): 0%
THP-1 [6]
  growth inhibition (GI): 0%
COLO 205 [7]
  growth inhibition (GI): 60%
COLO 205 [8]
  growth inhibition (GI): 32%

## O=C(O)/C(=C\c1ccc2c(c1)OCO2)c1ccccc1
SF-295 [14]
  growth inhibition (GI): 38%
IGROV-1 [10]
  growth inhibition (GI): 0%
IGROV-1 [11]
  growth inhibition (GI): 32%
PC-3 [1]
  growth inhibition (GI): 39%
PC-3 [2]
  growth inhibition (GI): 11%
MCF7 [12]
  growth inhibition (GI): 39%
MCF7 [13]
  growth inhibition (GI): 32%
A549 [3]
  growth inhibition (GI): 45%
A549 [4]
  growth inhibition (GI): 0%
SF-295 [15]
  growth inhibition (GI): 15%

## O=C(O)/C(=C\c1cccc(Cl)c1)c1ccccc1
IGROV-1 [10]
  growth inhibition (GI): 0%
IGROV-1 [11]
  growth inhibition (GI): 38%
PC-3 [1]
  growth inhibition (GI): 68%
PC-3 [2]
  growth inhibition (GI): 30%
MCF7 [12]
  growth inhibition (GI): 0%
MCF7 [13]
  growth inhibition (GI): 0%
A549 [3]
  growth inhibition (GI): 32%
A549 [4]
  growth inhibition (GI): 32%

## COc1cccc(/C=C(\C(=O)O)c2ccccc2)c1OC
SF-295 [14]
  growth inhibition (GI): 24%
IGROV-1 [10]
  growth inhibition (GI): 6%
IGROV-1 [11]
  growth inhibition (GI): 11%
PC-3 [1]
  growth inhibition (GI): 4%
PC-3 [2]
  growth inhibition (GI): 2%
MCF7 [12]
  growth inhibition (GI): 52%
MCF7 [13]
  growth inhibition (GI): 25%
A549 [3]
  growth inhibition (GI): 89%
A549 [4]
  growth inhibition (GI): 60%
SF-295 [15]
  growth inhibition (GI): 8%
COLO 205 [9]
  pIC50: 5.41

## O=c1[nH]cc(F)c(=O)[nH]1 [FLUOROURACIL]
THP-1 [16]
  growth inhibition (GI): 69%
COLO 205 [17]
  growth inhibition (GI): 74%

## COc1cc(OC)c(OC)cc1/C=C(\C(=O)O)c1ccccc1
PC-3 [1]
  growth inhibition (GI): 28%
PC-3 [2]
  growth inhibition (GI): 4%
A549 [3]
  growth inhibition (GI): 20%
A549 [4]
  growth inhibition (GI): 0%
THP-1 [5]
  growth inhibition (GI): 21%
THP-1 [6]
  growth inhibition (GI): 0%
COLO 205 [7]
  growth inhibition (GI): 16%
COLO 205 [8]
  growth inhibition (GI): 5%

## CO[C@@]12[C@H](COC(N)=O)C3=C(C(=O)C(C)=C(N)C3=O)N1C[C@@H]1N[C@@H]12 [MITOMYCIN]
PC-3 [18]
  growth inhibition (GI): 58%
MCF7 [19]
  growth inhibition (GI): 65%

## COc1cc(/C=C(\C(=O)O)c2ccccc2)cc(OC)c1OC
SF-295 [14]
  growth inhibition (GI): 25%
IGROV-1 [10]
  growth inhibition (GI): 0%
IGROV-1 [11]
  growth inhibition (GI): 1%
PC-3 [1]
  growth inhibition (GI): 22%
PC-3 [2]
  growth inhibition (GI): 10%
MCF7 [12]
  growth inhibition (GI): 63%
MCF7 [13]
  growth inhibition (GI): 54%
A549 [3]
  growth inhibition (GI): 65%
A549 [4]
  growth inhibition (GI): 21%
SF-295 [15]
  growth inhibition (GI): 13%
COLO 205 [9]
  pIC50: 4.06

## O=C(O)/C(=C\c1ccccc1Cl)c1ccccc1
IGROV-1 [10]
  growth inhibition (GI): 32%
IGROV-1 [11]
  growth inhibition (GI): 42%
PC-3 [1]
  growth inhibition (GI): 52%
PC-3 [2]
  growth inhibition (GI): 36%
MCF7 [12]
  growth inhibition (GI): 10%
MCF7 [13]
  growth inhibition (GI): 5%
A549 [3]
  growth inhibition (GI): 12%
A549 [4]
  growth inhibition (GI): 12%

## COc1ccc(OC)c(/C=C(\C(=O)O)c2ccccc2)c1
PC-3 [1]
  growth inhibition (GI): 0%
PC-3 [2]
  growth inhibition (GI): 0%
A549 [3]
  growth inhibition (GI): 10%
A549 [4]
  growth inhibition (GI): 0%
THP-1 [5]
  growth inhibition (GI): 4%
THP-1 [6]
  growth inhibition (GI): 0%
COLO 205 [7]
  growth inhibition (GI): 0%
COLO 205 [8]
  growth inhibition (GI): 0%

## COc1ccc(/C=C(\C(=O)O)c2ccccc2)cc1O
SF-295 [14]
  growth inhibition (GI): 12%
IGROV-1 [10]
  growth inhibition (GI): 8%
IGROV-1 [11]
  growth inhibition (GI): 17%
PC-3 [1]
  growth inhibition (GI): 23%
PC-3 [2]
  growth inhibition (GI): 12%
MCF7 [12]
  growth inhibition (GI): 24%
MCF7 [13]
  growth inhibition (GI): 14%
A549 [3]
  growth inhibition (GI): 20%
A549 [4]
  growth inhibition (GI): 0%
SF-295 [15]
  growth inhibition (GI): 0%

## O=C(O)/C(=C\c1ccccc1)c1ccccc1
SF-295 [14]
  growth inhibition (GI): 25%
IGROV-1 [10]
  growth inhibition (GI): 0%
IGROV-1 [11]
  growth inhibition (GI): 0%
PC-3 [1]
  growth inhibition (GI): 4%
PC-3 [2]
  growth inhibition (GI): 0%
MCF7 [12]
  growth inhibition (GI): 41%
MCF7 [13]
  growth inhibition (GI): 29%
A549 [3]
  growth inhibition (GI): 54%
A549 [4]
  growth inhibition (GI): 52%
SF-295 [15]
  growth inhibition (GI): 14%
COLO 205 [9]
  pIC50: 4.07

## O=C(O)/C(=C\C=C\c1ccccc1)c1ccccc1
PC-3 [1]
  growth inhibition (GI): 9%
PC-3 [2]
  growth inhibition (GI): 0%
A549 [3]
  growth inhibition (GI): 43%
A549 [4]
  growth inhibition (GI): 10%
THP-1 [5]
  growth inhibition (GI): 35%
THP-1 [6]
  growth inhibition (GI): 8%
COLO 205 [7]
  growth inhibition (GI): 44%
COLO 205 [8]
  growth inhibition (GI): 15%

## CC(=O)Oc1ccccc1/C=C(\C(=O)O)c1ccccc1
IGROV-1 [10]
  growth inhibition (GI): 6%
IGROV-1 [11]
  growth inhibition (GI): 18%
PC-3 [1]
  growth inhibition (GI): 60%
PC-3 [2]
  growth inhibition (GI): 53%
MCF7 [12]
  growth inhibition (GI): 20%
MCF7 [13]
  growth inhibition (GI): 6%
A549 [3]
  growth inhibition (GI): 10%
A549 [4]
  growth inhibition (GI): 10%

## COc1cccc2c1C(=O)c1c(O)c3c(c(O)c1C2=O)C[C@@](O)(C(=O)CO)C[C@@H]3O[C@H]1C[C@H](N)[C@H](O)[C@H](C)O1.Cl [DOXORUBICIN HYDROCHLORIDE]
SF-295 [20]
  growth inhibition (GI): 87%
MCF7 [21]
  growth inhibition (GI): 77%

## O=C(O)/C(=C\c1ccc(Cl)cc1)c1ccccc1
IGROV-1 [10]
  growth inhibition (GI): 0%
IGROV-1 [11]
  growth inhibition (GI): 0%
PC-3 [1]
  growth inhibition (GI): 42%
PC-3 [2]
  growth inhibition (GI): 14%
MCF7 [12]
  growth inhibition (GI): 22%
MCF7 [13]
  growth inhibition (GI): 10%
A549 [3]
  growth inhibition (GI): 61%
A549 [4]
  growth inhibition (GI): 61%
COLO 205 [9]
  pIC50: 4.47

## CC(=O)O[C@H]1C(=O)[C@@]2(C)[C@H]([C@H](OC(=O)c3ccccc3)[C@]3(O)C[C@H](OC(=O)[C@H](O)[C@@H](NC(=O)c4ccccc4)c4ccccc4)C(C)=C1C3(C)C)[C@]1(OC(C)=O)CO[C@@H]1C[C@@H]2O [PACLITAXEL]
IGROV-1 [22]
  growth inhibition (GI): 66%
A549 [23]
  growth inhibition (GI): 67%
